For test [1], the target named is T1, N-acylamino acid racemase (NAAAR) (Deinococcus radiodurans, UniProt Q9RYA6, A252S/A94S/G148D/K158R/P315S). It is filed as biochemical, Deinococcus radiodurans NCHU1003.
Test [2] has as its system L-N-carbamoylase/N-acylamino acid racemase. Description: Conversion of NCa-D-HPA with enzymes L-N-carbamoylase/N-acylamino acid racemase. Particulars: start 10 mM N-carbamoyl-D-HPA, 50° C., pH 8.0. The class given is biochemical. An excerpt: NCAU (5′-[…]-3′, SEQ ID NO: 5), containing BamHI restriction site; and NCAD (5′-[…]-3′, SEQ ID NO:6), containing HindIII restriction site. The nucleotide sequences encoding the NAAAR and L-N-carbamoylase were amplified from Deinococcus radiodurans NCHU1003 and Bacillus kaustophilus CCRC11223 chromosome, respectively, by PCR technology. The PCR products contained T5 promoter, lac operator and 6×his-tag sequence at the 5′-end and A transcriptional terminator at the 3′-end. The PCR products were cloned in the pQE30 expression vector. The resultant plasmid, pQEarlnca, was transformed into E. coli JM109 for inductive expression.
The reaction mixture containing 10 mM substrate N-carbamoyl-D-HPA, 0.5 mM CoCl2, 50 mM Tris-HCl buffer (pH 8.0), and the enzymes NAAAR and L-N-carbamoylase isolated from induced transformant was incubated at 50° C. for carrying out the conversion. After analysed by the Chiral-HPLC method, it is shown that the co-expressed enzymes could completely convert the original substrate to the final product L-amino acid in 2 to 3 h in one single reaction.

For test [3], the target named is T1, N-acylamino acid racemase (NAAAR). The experiment in a line: Substrate selectivity / enzymetic activity of NAAAR by Chiral-HPLC. The class given is biochemical, Deinococcus radiodurans NCHU1003. Particulars: for Specific activity: 10 mM substrate, 0.5 mM CoCl2, 50 mM Tris-HCl pH 8.0, 50° C., 30 min; for Relative activity: percentage of the enzyme activity using N-acetyl-D-Met as substrate. As for the experimental part:
The enzymetic activity was determined by measuring the production profile of conversion product at 215 nm via HPLC method as described by Tokuyama et al (1994). The reaction buffer containing 10 mM substrate, 0.5 mM CoCl2 and appropriate amount of the enzyme in 50 mM Tris-HCl buffer (pH 8.0) was incubated at 50° C. for 30 min, and the reaction was terminated by placing in boiling water for 5 min. The enzymetic activity was then measured by a Chiral-HPLC method. The Km values (mM) were determined from the original velocity data and the changes in NAc-D-HPA or NAc-D-HPA concentration. The unit NAAAR activity was defined as the enzyme amount required for catalysing 1 μmole of product formation under used condition. As described in the following Table 1, the specific activity of NAAAR for substrate N-carbamoyl-D-HPA was 1.31 U/mg, see Table 1.

Where [4] appears, read: compound at 2 mM, percentage of activity with CoCl2, substrate 10 mM N-carbamoyl-D-HPA, 50° C., 30 min.

Where two headings read alike, the source gives them in different places.

T1 sequence (Q9RYA6 whole entry A94S/G148D/K158R/A252S/P315S): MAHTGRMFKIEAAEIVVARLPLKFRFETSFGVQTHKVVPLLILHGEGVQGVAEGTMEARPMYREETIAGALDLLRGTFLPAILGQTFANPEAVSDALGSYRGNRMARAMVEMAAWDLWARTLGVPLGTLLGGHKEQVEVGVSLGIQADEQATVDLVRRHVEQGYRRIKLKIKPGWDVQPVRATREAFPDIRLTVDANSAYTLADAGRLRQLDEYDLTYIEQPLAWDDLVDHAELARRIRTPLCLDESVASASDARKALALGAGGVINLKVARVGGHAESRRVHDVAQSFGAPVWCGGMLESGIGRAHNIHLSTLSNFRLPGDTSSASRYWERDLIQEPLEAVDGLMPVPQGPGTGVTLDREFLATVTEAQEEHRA

With `[Ca+2].[Cl-].[Cl-]` [CaCl2], the Relative activity in test [1] (setting [4]) came out at 0%.

For `[Cl-].[Cl-].[Co+2]` [CoCl2], in test [1], the “Effect of bivalent metal ion on NAAAR enzymetic activity” value (“Effect of bivalent metal ion” for short) is recorded as “improved enzymetic activity” and the Relative activity is listed as 100%.

Regarding `[Cl][Cu][Cl]` [CuCl2], the Relative activity in test [1] (setting [4]) was found to be 0%.

For the compound `O=C(O)CN(CCN(CC(=O)O)CC(=O)O)CC(=O)O` [EDTA], the Relative activity in test [1] (compound at 10 mM, percentage of activity with CoCl2, substrate 10 mM N-carbamoyl-D-HPA, 50° C., 30 min) was determined as 0%.

For `N[C@@H](CCc1ccccc1)C(=O)O` [L-HPA, L-homophenylalanine], the “Concentration in conversion reaction” value turned out to be 4.96 mM in test [2] (time 0.5 hour), 8.84 mM in test [2] (time 1.0 hour) and 10 mM in test [2] (time 2.0 hour).

For `[Cl-].[Cl-].[Mg+2]` [MgCl2], in test [1] (setting [4]), the Relative activity was 20.5%.

On to `[Cl][Mn][Cl]` [MnCl2], for which, in test [1] (setting [4]), the Relative activity turned out to be 79.1%. Moreover, in test [1] (in words), the “Effect of bivalent metal ion” value is reported as “improved enzymetic activity”.

As to `CC(=O)N[C@H](CCc1ccccc1)C(=O)O` [N-acetyl-D-HPA], in test [3], the Specific activity is given as 9.17 U/mg and the Relative activity is recorded as 143.28%.

Regarding `CSCC[C@@H](NC(C)=O)C(=O)O` [N-acetyl-D-Met], in test [3], the Specific activity was determined as 6.40 U/mg and the Relative activity is on record as 100%.

Turning to `CC(=O)N[C@H](Cc1ccccc1)C(=O)O` [N-acetyl-D-Phe], in test [3], the Specific activity stood at 1.98 U/mg and the Relative activity is 30.94%.

Turning to `CC(=O)N[C@@H](CCC(N)=O)C(=O)O` [N-acetyl-L-Gln], in test [3], the Specific activity is 0.93 U/mg and the Relative activity amounted to 14.53%.

Regarding `CC(=O)N[C@@H](CCc1ccccc1)C(=O)O` [N-acetyl-L-HPA], in test [3], the Specific activity amounted to 11.97 U/mg and the Relative activity was found to be 187.03%.

`CC(=O)N[C@@H](CC(C)C)C(=O)O` [N-acetyl-L-Leu]: in test [3], the Specific activity is 0.45 U/mg and the Relative activity is 7.03%.

As for `CSCC[C@H](NC(C)=O)C(=O)O` [N-acetyl-L-Met], in test [3], the Specific activity is 8.04 U/mg and the Relative activity was found to be 125.63%.

Take `CC(=O)N[C@@H](Cc1ccccc1)C(=O)O` [N-acetyl-L-Phe]: in test [3], the Specific activity is 1.55 U/mg and the Relative activity is given as 24.22%.

Consider `CC(=O)N[C@@H](Cc1c[nH]c2ccccc12)C(=O)O` [N-acetyl-L-Trp], for which, in test [3], the Specific activity is 0.87 U/mg and the Relative activity was 13.13%.

Regarding `[2H]NC(=O)N[C@@H](CCc1ccccc1)C(=O)O` [N-carbamoyl-D-HPA], the Specific activity in test [3] came out at 1.31 U/mg. For the same compound, in test [3], the Relative activity stood at 20.46%. In addition, the “Concentration in conversion reaction” value in test [2] (time 0.5 hour) is 4.16 mM; in test [2] (time 1.0 hour) it was 1.16 mM; in test [2] (time 2.0 hour), 0 mM.

With `NC(=O)N[C@@H](CCc1ccccc1)C(=O)O` [N-carbamoyl-L-HPA], the Specific activity in test [3] is on record as 1.91 U/mg. Moreover, the Relative activity in test [3] is 29.84%. Further, the “Concentration in conversion reaction” value was 0.88 mM in test [2] (time 0.5 hour), 0 mM in test [2] (time 1.0 hour) and 0 mM in test [2] (time 2.0 hour).

Consider `O=C(CCl)N[C@@H](Cc1ccccc1)C(=O)O` [N-chloroacetyl-L-Phe], for which, in test [3], the Specific activity is on record as 1.16 U/mg and the Relative activity worked out at 18.13%.

`[Cl][Ni][Cl]` [NiCl2]: the Relative activity in test [1] (setting [4]) was found to be 40.6%. Moreover, the “Effect of bivalent metal ion” value in test [1] (in words) was “improved enzymetic activity”.

With `[Cl-].[Cl-].[Zn+2]` [ZnCl2], the Relative activity in test [1] (setting [4]) was 19.7%.

The record behind these values is patent publication US7629154B2, “Deinococcus N-acylamino acid racemase and use of preparing L-amino acid” (National Chunghsing University, priority 2005, dated 2009).
